Here are results for 6 cell lines from the supplement of paper PMC10307832.

Assay in all cases: relative viability (nuclei count vs DMSO), 5 days (fraction); higher = more cells survive
Compound in assay [1]: CC[C@H](Nc1ncnc2[nH]cnc12)c1nc2cccc(F)c2c(=O)n1-c1ccccc1 [Idelalisib] + CCNC(=O)c1noc(-c2cc(C(C)C)c(O)cc2O)c1-c1ccc(CN2CCOCC2)cc1 [Luminespib] (partner 0.01 µM)
The method, boiled down: (§1)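 After 5 days of treatment, lung cancer cells in 1536-well plates were fixed and stained in a single step (final 0.05% Triton X-100, 1% formaldehyde, 1 ug/ml Hoechst) and their nuclei counted on 4× images. Treatment had been applied by pin tool the day after seeding as one drug alone or as a fixed anchor-drug dose with five library-drug doses (not always all listed) in √10 steps. Relative viability is the nuclei count of treated wells divided by that of vehicle wells, and values are medians of duplicate plates.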

Compound in assay [2]: CC[C@H](Nc1ncnc2[nH]cnc12)c1nc2cccc(F)c2c(=O)n1-c1ccccc1 [Idelalisib] + N=C(N)NC(=N)NCCc1ccccc1 [Phenformin] (partner 250 µM)
In short, it runs like this: as §1

Compound in assay [3]: Nc1nc2[nH]cc(CCc3ccc(C(=O)N[C@@H](CCC(=O)O)C(=O)O)cc3)c2c(=O)[nH]1 [Pemetrexed] + Cc1nc(NC(=O)N2CCC[C@H]2C(N)=O)sc1-c1ccnc(C(C)(C)C(F)(F)F)c1 [Alpelisib] (partner 2 µM)
The method, boiled down:
as §1

Compound in assay [4]: Nc1nc2[nH]cc(CCc3ccc(C(=O)N[C@@H](CCC(=O)O)C(=O)O)cc3)c2c(=O)[nH]1 [Pemetrexed] + O=C(CCCCCCC(=O)Nc1ccccc1)NO [Vorinostat] (partner 1 µM)
The method, boiled down:
as §1

In the case of EKVX, the relative viability in assay [1] (first compound 0.04 µM) came to 0.703; in assay [1] (first compound 0.1265 µM) it was 0.916; in assay [1] (first compound 0.4 µM), 0.723; in assay [1] (first compound 1.265 µM), 0.804; in assay [1] (first compound 4 µM), 0.814; in assay [2] (first compound 0.04 µM), 0.244. Further, the relative viability in assay [2] (first compound 0.1265 µM) worked out at 0.258; in assay [2] (first compound 0.4 µM), 0.213; in assay [2] (first compound 1.265 µM), 0.225; in assay [2] (first compound 4 µM) it was 0.234; in assay [3] (first compound 0.002 µM), 0.827; in assay [3] (first compound 0.006325 µM) it was 0.89. Further, the relative viability in assay [3] (first compound 0.02 µM) amounted to 0.943; in assay [3] (first compound 0.06325 µM) it was 0.827; in assay [3] (first compound 0.2 µM), 0.615; in assay [4] (first compound 0.002 µM) it was 0.683; in assay [4] (first compound 0.006325 µM), 0.654; in assay [4] (first compound 0.02 µM), 0.724. Moreover, the relative viability in assay [4] (first compound 0.06325 µM) was found to be 0.793; in assay [4] (first compound 0.2 µM) it was 0.557.

In the case of COR-L 105, the relative viability was 0.695 in assay [1] (first compound 0.04 µM); 0.783 in assay [1] (first compound 0.1265 µM); 0.814 in assay [1] (first compound 0.4 µM); 0.699 in assay [1] (first compound 1.265 µM); 0.573 in assay [1] (first compound 4 µM); 0.592 in assay [2] (first compound 0.04 µM). For the same cell line, the relative viability in assay [2] (first compound 0.1265 µM) was 0.473; in assay [2] (first compound 0.4 µM) it was 0.433; in assay [2] (first compound 1.265 µM) it was 0.564; in assay [2] (first compound 4 µM), 0.421; in assay [3] (first compound 0.002 µM) it was 0.93; in assay [3] (first compound 0.006325 µM), 0.708. Moreover, the relative viability in assay [3] (first compound 0.02 µM) was 1.08; in assay [3] (first compound 0.06325 µM), 0.891; in assay [3] (first compound 0.2 µM), 0.909; in assay [4] (first compound 0.002 µM), 0.954; in assay [4] (first compound 0.006325 µM), 0.784; in assay [4] (first compound 0.02 µM), 0.849. Also, the values for the relative viability in assay [4] (first compound 0.06325 µM) and in assay [4] (first compound 0.2 µM) were 0.857 and 0.688, respectively.

With NCI-H322M, the relative viability came to 0.955 in assay [1] (first compound 0.04 µM); 0.919 in assay [1] (first compound 0.1265 µM); 0.719 in assay [1] (first compound 0.4 µM); 0.847 in assay [1] (first compound 1.265 µM); 0.683 in assay [1] (first compound 4 µM); 0.901 in assay [2] (first compound 0.04 µM). Further, the relative viability in assay [2] (first compound 0.1265 µM) is 0.846; in assay [2] (first compound 0.4 µM), 0.66; in assay [2] (first compound 1.265 µM) it was 0.741; in assay [2] (first compound 4 µM) it was 0.735; in assay [3] (first compound 0.002 µM) it was 0.814; in assay [3] (first compound 0.006325 µM), 0.724. Besides, the relative viability in assay [3] (first compound 0.02 µM) is 0.813; in assay [3] (first compound 0.06325 µM), 0.776; in assay [3] (first compound 0.2 µM) it was 0.773; in assay [4] (first compound 0.002 µM), 0.84; in assay [4] (first compound 0.006325 µM), 0.957; in assay [4] (first compound 0.02 µM), 0.888. Further, the relative viability came to 0.893 in assay [4] (first compound 0.06325 µM) and 0.58 in assay [4] (first compound 0.2 µM).

Regarding HARA, the relative viability in assay [1] (first compound 0.04 µM) is 0.778; in assay [1] (first compound 0.1265 µM) it was 0.642; in assay [1] (first compound 0.4 µM), 0.613; in assay [1] (first compound 1.265 µM), 0.683; in assay [1] (first compound 4 µM), 0.6; in assay [2] (first compound 0.04 µM) it was 0.525. The relative viability in assay [2] (first compound 0.1265 µM) was determined as 0.52; in assay [2] (first compound 0.4 µM), 0.432; in assay [2] (first compound 1.265 µM), 0.45; in assay [2] (first compound 4 µM), 0.416; in assay [3] (first compound 0.002 µM), 0.822; in assay [3] (first compound 0.006325 µM) it was 0.814. Further, the relative viability in assay [3] (first compound 0.02 µM) amounted to 0.862; in assay [3] (first compound 0.06325 µM), 0.799; in assay [3] (first compound 0.2 µM) it was 0.275; in assay [4] (first compound 0.002 µM) it was 0.517; in assay [4] (first compound 0.006325 µM) it was 0.611; in assay [4] (first compound 0.02 µM), 0.512. In addition, the relative viability in assay [4] (first compound 0.06325 µM) is 0.595; in assay [4] (first compound 0.2 µM), 0.231.

NCI-H2023: the relative viability was 0.644 in assay [1] (first compound 0.04 µM); 0.784 in assay [1] (first compound 0.1265 µM); 0.79 in assay [1] (first compound 0.4 µM); 0.87 in assay [1] (first compound 1.265 µM); 0.67 in assay [1] (first compound 4 µM); 0.407 in assay [2] (first compound 0.04 µM). Besides, the relative viability in assay [2] (first compound 0.1265 µM) was determined as 0.391; in assay [2] (first compound 0.4 µM), 0.363; in assay [2] (first compound 1.265 µM), 0.361; in assay [2] (first compound 4 µM), 0.351; in assay [3] (first compound 0.002 µM) it was 0.573; in assay [3] (first compound 0.006325 µM), 0.521. Besides, the relative viability in assay [3] (first compound 0.02 µM) worked out at 0.558; in assay [3] (first compound 0.06325 µM) it was 0.524; in assay [3] (first compound 0.2 µM) it was 0.289; in assay [4] (first compound 0.002 µM) it was 0.306; in assay [4] (first compound 0.006325 µM) it was 0.595; in assay [4] (first compound 0.02 µM), 0.676. Moreover, the relative viability in assay [4] (first compound 0.06325 µM) worked out at 0.372; in assay [4] (first compound 0.2 µM), 0.15.

NCI-H1437: the relative viability in assay [1] (first compound 0.04 µM) is 1.11; in assay [1] (first compound 0.1265 µM), 1.15; in assay [1] (first compound 0.4 µM) it was 1.05; in assay [1] (first compound 1.265 µM), 1.22; in assay [1] (first compound 4 µM) it was 1.18; in assay [2] (first compound 0.04 µM) it was 0.309. Also, the relative viability in assay [2] (first compound 0.1265 µM) is 0.306; in assay [2] (first compound 0.4 µM), 0.297; in assay [2] (first compound 1.265 µM), 0.361; in assay [2] (first compound 4 µM) it was 0.247; in assay [3] (first compound 0.002 µM), 0.877; in assay [3] (first compound 0.006325 µM), 0.939. The relative viability was determined as 0.884 in assay [3] (first compound 0.02 µM); 0.506 in assay [3] (first compound 0.06325 µM); 0.227 in assay [3] (first compound 0.2 µM); 0.853 in assay [4] (first compound 0.002 µM); 0.813 in assay [4] (first compound 0.006325 µM); 0.806 in assay [4] (first compound 0.02 µM). The relative viability in assay [4] (first compound 0.06325 µM) stood at 0.596; in assay [4] (first compound 0.2 µM) it was 0.364.
